Laboratory results from ChEMBL document CHEMBL1201862, “PubChem BioAssay data set” (2004).
Activity calls are given as the source filed them.

Assays:
[1] = target: Cytochrome P450 2C9 (Homo sapiens, UniProt P11712)
[2] = target: Cytochrome P450 3A4 (Homo sapiens, UniProt P08684);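 further: CYP3A4 tested as one member of a cytochrome P450 panel screen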
[3] = target: Cytochrome P450 2C19 (Homo sapiens, UniProt P33261); test: Cytochrome panel assay with activity outcomes. Panel member name: p450-cyp2c19 Compounds with AC50 equal or less than 10 uM are considered active; format: functional; details: read-out: AC50
[4] = microbe, parasite or virus in culture; format: functional; details: Mycobacterium tuberculosis
[5] = Luminescence Cell-Based Dose Confirmation HTS to Identify Activators of 5'UTR Stem-Loop Driven Alpha-Synuclein mRNA Translation in H4 Neuroglioblastoma Cells. [Related pubchem assays: 1829 (Project Summary), 1814 (Primary HTS)]; format: functional
[6] = Luminescence Cell-Based Dose Response HTS to Identify Activators of Luciferase Translation or Activity in H4 […] Cells. [Related pubchem assays: 1829 (Project Summary), 1814 (Primary HTS)]; format: functional
[7] = growth suppression of PTEN-null colon cells, dose response, cell-based, HCT116 PTEN knockout (AID 1047); format: functional;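 further: HCT116 colon tumor cells with PTEN knocked out; cells exposed to compound for 60 hours before readout; potency for loss of cell viability measured by luminescence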
[8] = tested on: H4; test: Luminescence Cell-Based Dose Response HTS to Identify Activators of 5'UTR Stem-Loop Driven Prion Protein mRNA Translation in H4 Neuroglioblastoma Cells. [Related pubchem assays: 1829 (Project Summary), 1814 (Primary HTS)]; format: functional; details: Homo sapiens
[9] = Luminescence Cell-Based Dose Confirmation HTS to Identify Inhibitors of Platelet Dense Granule Release. [Related pubchem assays: 1663 (Primary HTS), 1678 (Summary of Project)]; format: functional
[10] = target: Luciferin 4-monooxygenase (Photinus pyralis, UniProt P08659); test: firefly luciferase enzyme inhibitors, dose response, biochemical, luminescence (AID 1891)
[11] = growth suppression of beta-catenin-knockout colon cells, dose response, cell-based, HCT116, human colon tumor (AID 1045); format: functional;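 further: HCT116 colon tumor cells with beta catenin knocked out; cells exposed to compound for 60 hours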
[12] = target: T1, Protein RecA (Mycobacterium tuberculosis, UniProt P9WHJ3); test: Fluorescence Cell-Free Homogeneous Dose Retest to Identify Inhibitors of RecA-Intein Splicing Activity. [Related pubchem assays (depositor defined):AID2097, AID2223, AID489010, AID492950]; format: functional
T1 sequence (P9WHJ3 whole entry): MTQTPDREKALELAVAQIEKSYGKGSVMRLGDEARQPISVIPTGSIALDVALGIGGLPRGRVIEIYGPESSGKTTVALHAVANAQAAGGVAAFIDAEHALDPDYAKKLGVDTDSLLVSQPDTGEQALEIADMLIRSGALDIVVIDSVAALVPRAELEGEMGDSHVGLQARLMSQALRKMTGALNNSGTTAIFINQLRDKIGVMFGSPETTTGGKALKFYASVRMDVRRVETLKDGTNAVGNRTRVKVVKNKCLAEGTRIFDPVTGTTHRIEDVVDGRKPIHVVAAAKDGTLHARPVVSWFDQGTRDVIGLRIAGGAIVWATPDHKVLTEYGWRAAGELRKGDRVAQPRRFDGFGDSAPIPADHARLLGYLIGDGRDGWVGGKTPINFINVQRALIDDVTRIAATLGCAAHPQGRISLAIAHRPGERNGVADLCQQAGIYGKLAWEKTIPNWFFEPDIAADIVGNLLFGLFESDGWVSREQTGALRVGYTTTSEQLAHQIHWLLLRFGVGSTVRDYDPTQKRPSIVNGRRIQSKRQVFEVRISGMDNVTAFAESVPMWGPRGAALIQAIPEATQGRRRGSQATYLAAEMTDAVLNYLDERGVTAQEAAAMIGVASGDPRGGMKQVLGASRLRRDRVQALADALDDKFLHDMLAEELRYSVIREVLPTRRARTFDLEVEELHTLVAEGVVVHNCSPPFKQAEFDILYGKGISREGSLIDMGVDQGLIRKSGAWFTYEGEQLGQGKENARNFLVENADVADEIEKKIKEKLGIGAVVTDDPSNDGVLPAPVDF

[13] = target: T2, Replicative DNA helicase DnaB (Mycobacterium tuberculosis, UniProt P9WMR3); test: DnaB intein splicing inhibitors, dose response, biochemical, cell-free fluorescence (AID 449749); format: functional
T2 sequence (P9WMR3 whole entry): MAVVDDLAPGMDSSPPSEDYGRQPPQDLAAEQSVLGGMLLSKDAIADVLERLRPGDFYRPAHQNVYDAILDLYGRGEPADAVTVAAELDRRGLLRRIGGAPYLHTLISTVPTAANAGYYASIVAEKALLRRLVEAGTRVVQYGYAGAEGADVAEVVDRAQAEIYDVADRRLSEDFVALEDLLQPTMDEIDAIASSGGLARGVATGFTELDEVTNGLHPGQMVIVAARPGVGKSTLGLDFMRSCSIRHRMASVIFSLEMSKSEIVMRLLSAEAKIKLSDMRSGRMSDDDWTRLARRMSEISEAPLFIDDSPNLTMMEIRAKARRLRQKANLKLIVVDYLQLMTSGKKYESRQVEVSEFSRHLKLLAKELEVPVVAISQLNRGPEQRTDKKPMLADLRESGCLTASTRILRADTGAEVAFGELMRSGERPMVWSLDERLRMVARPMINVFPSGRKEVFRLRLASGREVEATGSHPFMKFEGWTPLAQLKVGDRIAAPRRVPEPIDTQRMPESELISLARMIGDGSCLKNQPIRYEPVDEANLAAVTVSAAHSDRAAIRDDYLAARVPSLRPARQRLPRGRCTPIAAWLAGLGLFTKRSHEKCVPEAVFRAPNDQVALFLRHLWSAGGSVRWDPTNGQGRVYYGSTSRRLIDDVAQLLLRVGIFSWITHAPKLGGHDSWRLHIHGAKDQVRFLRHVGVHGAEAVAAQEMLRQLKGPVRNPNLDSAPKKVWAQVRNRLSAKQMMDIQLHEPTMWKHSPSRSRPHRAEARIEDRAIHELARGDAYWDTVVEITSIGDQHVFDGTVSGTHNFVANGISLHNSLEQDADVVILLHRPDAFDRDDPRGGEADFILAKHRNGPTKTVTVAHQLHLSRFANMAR

[14] = NIH-3T3 fibroblast cytotoxicity, dose response, cytotoxicity control, cell-based, fluorescence, Alamar Blue, secondary assay (AID 2327); format: functional;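 further: NIH-3T3 mouse fibroblasts cultured with fluconazole at 8 µg/mL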
[15] = inhibitors of intracellular T. cruzi replication, confirmation, NIH3T3 host cells, beta-gal luminescence (AID 2044); format: functional, cell-based;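 further: intracellular parasites grown in NIH/3T3 mouse fibroblasts as host cells; luminescent beta-galactosidase reporter signal from transgenic T. cruzi replicating inside host cells; inhibitors lower the luminescence signal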
[16] = target: T3, Fatty acid synthase (Homo sapiens, UniProt P49327); test: FAS thioesterase domain inhibitors, dose response, biochemical, endpoint fluorescence intensity, uHTS hits (AID 624327); format: functional;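 further: fluorescence from hydrolysis of an O-methyl fluorescein acyl ester substrate by the enzyme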
[17] = target: T4, Streptokinase A (Streptococcus pyogenes serotype M1, UniProt P10520); test: S. pyogenes streptokinase expression inhibitors, potency, dose response, plasminogen activation absorbance, OD405 (AID 1914); format: functional, Streptococcus pyogenes M1 GAS;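 further: secreted streptokinase activity via plasminogen activation per viability signal from cell pellet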
T4 sequence (P10520 whole entry): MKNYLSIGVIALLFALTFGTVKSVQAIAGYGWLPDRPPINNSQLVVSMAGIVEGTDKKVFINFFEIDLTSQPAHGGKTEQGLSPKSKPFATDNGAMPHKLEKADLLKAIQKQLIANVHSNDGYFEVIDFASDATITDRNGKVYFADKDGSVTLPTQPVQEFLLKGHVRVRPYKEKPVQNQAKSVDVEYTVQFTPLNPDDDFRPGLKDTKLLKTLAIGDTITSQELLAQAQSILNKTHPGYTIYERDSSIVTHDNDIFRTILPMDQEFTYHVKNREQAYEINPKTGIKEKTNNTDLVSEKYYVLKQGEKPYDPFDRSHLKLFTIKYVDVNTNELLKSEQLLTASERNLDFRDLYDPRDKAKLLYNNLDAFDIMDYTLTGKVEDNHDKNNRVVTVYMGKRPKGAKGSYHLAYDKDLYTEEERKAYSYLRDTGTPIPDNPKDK

[18] = cytotoxicity toward NIH3T3 fibroblasts, dose response, counter-screen, cell-based, ATP luminescence, mouse fibroblasts (AID 2010); format: functional;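 further: cells exposed to compound for about 90 hours before reading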
[19] = tested on: Streptococcus sp. 'group A'; test: growth inhibition of control SK(-) GAS strain, dose response, counter-screen for streptokinase expression inhibitor project, luminescence, kanamycin, BacTiterGlo, confirmation (AID 1900); format: functional, organism-based
[20] = target: T3, Fatty acid synthase; test: FAS thioesterase domain inhibitors, dose response, biochemical, kinetic fluorescence intensity (AID 624326); format: functional;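 further: rate of fluorescence rise from hydrolysis of a fluorogenic O-methyl fluorescein ester substrate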
[21] = tested on: Streptococcus; test: Group A Streptococcus viability loss, dose response, counter-screen for streptokinase expression inhibitor project, luminescence, BacTiterGlo (AID 1915); format: functional, organism-based;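 further: potency for reduction of bacterial viability or growth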

T3 sequence (P49327 whole entry, the tested form may be a part): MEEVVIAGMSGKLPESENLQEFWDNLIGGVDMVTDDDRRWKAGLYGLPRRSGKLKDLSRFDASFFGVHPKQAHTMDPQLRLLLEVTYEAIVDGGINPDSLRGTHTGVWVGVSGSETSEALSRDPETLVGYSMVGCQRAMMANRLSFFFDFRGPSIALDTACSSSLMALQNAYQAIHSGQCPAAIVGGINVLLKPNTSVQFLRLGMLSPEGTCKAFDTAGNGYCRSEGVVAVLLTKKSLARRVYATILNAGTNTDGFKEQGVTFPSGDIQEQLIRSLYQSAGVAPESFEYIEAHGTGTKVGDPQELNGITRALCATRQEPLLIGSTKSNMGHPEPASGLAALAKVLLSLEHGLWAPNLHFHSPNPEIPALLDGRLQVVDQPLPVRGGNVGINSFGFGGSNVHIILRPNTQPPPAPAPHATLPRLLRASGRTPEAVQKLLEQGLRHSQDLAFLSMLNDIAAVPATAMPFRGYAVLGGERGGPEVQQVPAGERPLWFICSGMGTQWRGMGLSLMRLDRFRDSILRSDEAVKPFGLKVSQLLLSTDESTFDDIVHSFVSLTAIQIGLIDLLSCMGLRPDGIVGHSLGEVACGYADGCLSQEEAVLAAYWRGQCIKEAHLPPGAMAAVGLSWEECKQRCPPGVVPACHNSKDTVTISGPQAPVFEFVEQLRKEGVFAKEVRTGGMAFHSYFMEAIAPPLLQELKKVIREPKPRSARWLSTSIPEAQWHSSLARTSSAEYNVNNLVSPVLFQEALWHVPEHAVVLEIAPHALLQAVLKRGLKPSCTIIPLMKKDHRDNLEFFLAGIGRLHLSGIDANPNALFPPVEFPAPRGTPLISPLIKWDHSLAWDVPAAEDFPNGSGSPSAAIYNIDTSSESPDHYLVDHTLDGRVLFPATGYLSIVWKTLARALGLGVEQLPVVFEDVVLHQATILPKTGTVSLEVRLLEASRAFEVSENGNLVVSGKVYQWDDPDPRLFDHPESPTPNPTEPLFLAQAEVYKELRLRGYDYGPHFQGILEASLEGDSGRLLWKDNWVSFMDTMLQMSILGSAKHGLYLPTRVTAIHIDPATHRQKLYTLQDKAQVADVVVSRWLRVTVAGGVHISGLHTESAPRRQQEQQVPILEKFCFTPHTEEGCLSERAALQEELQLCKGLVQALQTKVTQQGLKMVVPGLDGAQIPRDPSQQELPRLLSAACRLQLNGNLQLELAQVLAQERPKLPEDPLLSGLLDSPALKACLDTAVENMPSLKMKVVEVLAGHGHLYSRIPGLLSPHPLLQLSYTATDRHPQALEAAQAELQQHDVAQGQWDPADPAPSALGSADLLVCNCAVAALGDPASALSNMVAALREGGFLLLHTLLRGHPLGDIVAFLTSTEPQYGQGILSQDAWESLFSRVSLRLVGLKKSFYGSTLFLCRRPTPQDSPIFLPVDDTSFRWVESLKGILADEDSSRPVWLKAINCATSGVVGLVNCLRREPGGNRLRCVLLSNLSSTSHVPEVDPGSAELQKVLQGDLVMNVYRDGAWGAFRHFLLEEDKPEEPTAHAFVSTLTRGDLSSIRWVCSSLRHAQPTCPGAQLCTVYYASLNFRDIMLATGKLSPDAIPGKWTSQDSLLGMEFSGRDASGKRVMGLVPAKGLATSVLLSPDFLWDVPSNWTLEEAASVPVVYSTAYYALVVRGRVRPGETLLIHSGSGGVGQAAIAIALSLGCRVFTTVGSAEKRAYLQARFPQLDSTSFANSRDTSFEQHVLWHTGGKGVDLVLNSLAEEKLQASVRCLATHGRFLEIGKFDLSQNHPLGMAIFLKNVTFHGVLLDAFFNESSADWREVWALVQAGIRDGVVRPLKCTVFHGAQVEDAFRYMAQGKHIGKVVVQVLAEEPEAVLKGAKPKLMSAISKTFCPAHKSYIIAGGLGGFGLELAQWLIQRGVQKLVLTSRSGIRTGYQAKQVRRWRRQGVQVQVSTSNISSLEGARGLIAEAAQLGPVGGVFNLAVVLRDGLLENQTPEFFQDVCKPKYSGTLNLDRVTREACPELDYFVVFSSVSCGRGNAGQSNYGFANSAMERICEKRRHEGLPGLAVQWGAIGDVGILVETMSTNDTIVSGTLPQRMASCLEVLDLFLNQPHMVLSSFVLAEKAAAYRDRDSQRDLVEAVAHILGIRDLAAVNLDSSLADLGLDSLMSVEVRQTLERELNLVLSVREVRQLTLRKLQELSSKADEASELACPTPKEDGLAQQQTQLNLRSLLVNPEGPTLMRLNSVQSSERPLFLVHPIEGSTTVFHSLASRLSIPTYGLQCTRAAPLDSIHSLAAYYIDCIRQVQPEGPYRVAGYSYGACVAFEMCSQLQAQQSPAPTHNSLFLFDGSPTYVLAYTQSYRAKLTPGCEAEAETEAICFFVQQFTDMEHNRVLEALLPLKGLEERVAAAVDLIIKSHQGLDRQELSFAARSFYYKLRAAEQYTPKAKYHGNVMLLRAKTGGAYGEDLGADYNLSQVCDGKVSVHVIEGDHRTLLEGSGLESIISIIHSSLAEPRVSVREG
Sequence of Cytochrome P450 2C19 (P33261 whole entry): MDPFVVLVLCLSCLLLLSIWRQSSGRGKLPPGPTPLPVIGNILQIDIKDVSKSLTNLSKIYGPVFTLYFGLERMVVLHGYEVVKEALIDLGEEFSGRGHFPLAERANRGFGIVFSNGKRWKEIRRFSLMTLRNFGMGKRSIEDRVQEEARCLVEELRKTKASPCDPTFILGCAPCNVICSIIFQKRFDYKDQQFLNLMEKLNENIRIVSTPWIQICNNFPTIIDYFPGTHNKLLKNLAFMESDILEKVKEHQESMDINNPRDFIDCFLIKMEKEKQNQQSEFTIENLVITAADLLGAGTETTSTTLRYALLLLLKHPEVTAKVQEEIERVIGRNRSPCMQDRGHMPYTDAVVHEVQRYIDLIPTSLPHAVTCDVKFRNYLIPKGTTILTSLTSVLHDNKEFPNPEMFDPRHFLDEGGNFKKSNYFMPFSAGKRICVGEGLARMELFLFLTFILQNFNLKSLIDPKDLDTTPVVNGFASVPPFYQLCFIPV
Sequence of Cytochrome P450 3A4 (P08684 whole entry): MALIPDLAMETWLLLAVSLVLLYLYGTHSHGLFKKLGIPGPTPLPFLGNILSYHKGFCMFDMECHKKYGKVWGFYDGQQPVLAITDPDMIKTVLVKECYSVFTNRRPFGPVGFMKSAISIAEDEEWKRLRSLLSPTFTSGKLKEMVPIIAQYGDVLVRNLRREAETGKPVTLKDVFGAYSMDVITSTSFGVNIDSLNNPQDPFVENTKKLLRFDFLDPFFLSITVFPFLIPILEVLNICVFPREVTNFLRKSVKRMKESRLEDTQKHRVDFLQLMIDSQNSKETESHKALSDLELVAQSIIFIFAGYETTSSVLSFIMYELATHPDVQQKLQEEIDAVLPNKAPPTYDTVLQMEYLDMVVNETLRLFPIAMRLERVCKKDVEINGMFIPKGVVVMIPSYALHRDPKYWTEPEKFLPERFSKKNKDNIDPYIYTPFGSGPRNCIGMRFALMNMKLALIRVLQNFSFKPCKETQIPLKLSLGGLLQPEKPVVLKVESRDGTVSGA
Sequence of Cytochrome P450 2C9 (P11712 whole entry): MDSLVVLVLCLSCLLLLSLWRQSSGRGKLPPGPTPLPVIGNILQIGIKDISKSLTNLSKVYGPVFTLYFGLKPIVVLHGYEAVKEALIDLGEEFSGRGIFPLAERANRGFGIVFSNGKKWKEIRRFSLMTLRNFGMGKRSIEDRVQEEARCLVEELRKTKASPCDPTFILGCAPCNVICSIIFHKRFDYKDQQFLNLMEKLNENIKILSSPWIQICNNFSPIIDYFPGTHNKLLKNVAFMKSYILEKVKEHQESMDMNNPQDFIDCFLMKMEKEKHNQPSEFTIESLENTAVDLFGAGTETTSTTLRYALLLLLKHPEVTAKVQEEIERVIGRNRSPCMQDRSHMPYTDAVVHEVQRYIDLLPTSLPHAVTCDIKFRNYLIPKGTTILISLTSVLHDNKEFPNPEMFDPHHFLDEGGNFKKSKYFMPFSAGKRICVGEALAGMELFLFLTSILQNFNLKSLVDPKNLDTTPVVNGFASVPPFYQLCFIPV
Sequence of Luciferin 4-monooxygenase (P08659 whole entry): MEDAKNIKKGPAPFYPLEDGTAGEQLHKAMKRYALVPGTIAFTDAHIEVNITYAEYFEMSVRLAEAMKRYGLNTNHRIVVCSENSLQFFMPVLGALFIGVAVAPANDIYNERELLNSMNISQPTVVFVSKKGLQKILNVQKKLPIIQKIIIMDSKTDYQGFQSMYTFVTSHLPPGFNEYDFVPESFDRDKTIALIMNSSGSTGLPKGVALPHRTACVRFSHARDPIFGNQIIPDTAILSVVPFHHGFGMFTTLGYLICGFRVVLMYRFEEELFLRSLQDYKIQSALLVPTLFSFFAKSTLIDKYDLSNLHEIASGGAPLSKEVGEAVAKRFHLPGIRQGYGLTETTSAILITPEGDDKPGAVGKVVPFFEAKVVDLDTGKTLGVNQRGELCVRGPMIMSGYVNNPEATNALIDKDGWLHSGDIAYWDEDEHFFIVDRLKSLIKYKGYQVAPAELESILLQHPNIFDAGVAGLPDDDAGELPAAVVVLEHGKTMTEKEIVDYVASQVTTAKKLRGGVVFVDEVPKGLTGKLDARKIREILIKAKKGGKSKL

For `Cc1ccc(OC(=O)c2oc3ccc(F)cc3c2C)c(C)c1`, the AC50 [1] was 10 µM (inconclusive), the AC50 [2] was 39.8 µM (inconclusive) and the AC50 [3] was 11.2 µM (inconclusive). For the same compound, the CC50 [4] was 3.94 µM (active).
For `Cc1ccc2[nH]c(/C(C#N)=C/c3c[nH]nc3-c3ccc(F)cc3)nc2c1`, the EC50 [5] was > 120 µM (not active), the EC50 [6] was 5.96 µM (active) and the EC50 [7] was 7.74 µM (active). The EC50 [8] was > 120 µM (not active), the EC50 [9] was 46.2 µM (active) and the EC50 [10] was > 112 µM (not active). For the same compound, the CC50 [4] was 26.9 µM (active) and the EC50 [11] was 9.64 µM (active).
In the case of `Clc1ccc(CNc2nc(CN3CCOCC3)nc3scc(-c4ccccc4)c23)cc1`, the CC50 [4] is reported as > 40 µM (active).
In the case of `CC(C)(C)c1csc(NC(=O)c2c(F)c(F)c(F)c(F)c2F)n1`, the EC50 [12] is reported as 18.4 µM (active), the AC50 [13] is reported as 26 µM (active) and the CC50 [4] is reported as 34 µM (active).
For `CCS(=O)(=O)c1ccc(-c2cccc(NC(=O)COc3ccc(Cl)cc3)c2)nn1`, the EC50 [14] was > 150 µM (inactive).
With `Cc1cccc(NC(=O)c2[nH]cnc2C(=O)N[C@@H](CCCCNC(=O)OC(C)(C)C)C(=O)OC(C)(C)C)c1` the EC50 [15] was 2.44 µM (active), the IC50 [16] was 1.12 µM (active) and the EC50 [17] was > 150 µM (not active). The EC50 [18] was > 60 µM (not active), the EC50 [19] was 3.46 µM (active) and the IC50 [20] was 0.658 µM (active). The EC50 [21] was 8.6 µM (active).
For `COc1ccc(N2COC3c4cccc5cccc(c45)C32)cc1` (stereo not given), the CC50 [4] was > 40 µM (active).
